ChEMBL document CHEMBL5518186, “Discovery of the cereblon-recruiting tubulin PROTACs effective in overcoming Taxol resistance in vitro and in vivo” (Eur J Med Chem, 2024)
The source made the active and inactive calls. No cut-off for these calls is given here.

Columns and labels:
[1] = target: T1, Protein cereblon/Tubulin beta (Homo sapiens) (UniProt P68371+Q9H4B7+Q13509+P04350+Q3ZCM7+P07437+Q13885+Q9BVA1+Q9BUF5+Q96SW2+A6NNZ2); experiment: Protac activity at CRBN/beta-tubulin in human A549 cells assessed as reduction in beta-tubulin level at 0.25 uM by immunoblotting analysis; assay type: cell-based; settings: time 6-72 hrs, TDE = time-dependent effect
A549 [2] = experiment: Antiproliferative activity against human A549 cells incubated for 72 hrs; assay type: functional, cell-based; settings: A549, 72 h
A549/TR [3] = experiment: Induction of cell cycle arrest in human A549/Taxol cells assessed as accumulation of cells at G0/G1 phase at 0.01 uM incubated for 24 hrs by PI staining based flow cytometry analysis (reference value: 77.86%); assay type: functional
A549/TR [4] = experiment: Induction of cell cycle arrest in human A549/Taxol cells assessed as accumulation of cells at G2/M phase at 0.01 uM incubated for 24 hrs by PI staining based flow cytometry analysis (reference value: 17.02%); assay type: functional
[5] = target: T2, Protein cereblon/Tubulin beta-3 chain (Homo sapiens, UniProt Q13509+Q96SW2); experiment: Protac activity at CRBN/beta3-tubulin in human A549 cells assessed as reduction in beta3-tubulin level at 0.01 to 1 uM incubated for 48 hrs by immunoblotting analysis; assay type: cell-based; settings: dose 0.01-1 µM
Target sequence in this assay (Q13509 whole entry, looked up): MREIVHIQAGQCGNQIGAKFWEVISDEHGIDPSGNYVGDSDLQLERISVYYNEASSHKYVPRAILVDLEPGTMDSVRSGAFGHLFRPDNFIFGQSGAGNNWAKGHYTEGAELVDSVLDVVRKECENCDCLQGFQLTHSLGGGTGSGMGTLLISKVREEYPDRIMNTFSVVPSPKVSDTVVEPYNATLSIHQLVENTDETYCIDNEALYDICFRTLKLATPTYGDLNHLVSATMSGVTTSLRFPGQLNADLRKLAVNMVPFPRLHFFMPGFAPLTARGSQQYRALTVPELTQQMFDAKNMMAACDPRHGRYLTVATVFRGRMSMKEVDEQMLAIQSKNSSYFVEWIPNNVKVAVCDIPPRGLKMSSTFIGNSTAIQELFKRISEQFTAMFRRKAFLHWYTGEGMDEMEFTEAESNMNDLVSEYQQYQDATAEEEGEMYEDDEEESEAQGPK
Target sequence in this assay (Q96SW2 whole entry, looked up): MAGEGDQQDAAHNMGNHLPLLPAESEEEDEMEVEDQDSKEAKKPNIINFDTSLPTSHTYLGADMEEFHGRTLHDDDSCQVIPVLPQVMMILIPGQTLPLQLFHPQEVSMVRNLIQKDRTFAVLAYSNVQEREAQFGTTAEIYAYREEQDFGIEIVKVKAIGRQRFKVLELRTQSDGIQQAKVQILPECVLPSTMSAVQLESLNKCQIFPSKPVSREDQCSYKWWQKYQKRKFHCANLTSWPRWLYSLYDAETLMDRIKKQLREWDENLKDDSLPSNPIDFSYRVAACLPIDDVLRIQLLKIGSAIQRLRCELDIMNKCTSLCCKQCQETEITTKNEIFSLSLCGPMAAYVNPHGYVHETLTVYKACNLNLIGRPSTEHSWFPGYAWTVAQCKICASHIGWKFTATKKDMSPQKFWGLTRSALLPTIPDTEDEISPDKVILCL

HepG2 [6] = experiment: Inhibition of cell invasion in human HepG2 cells; assay type: functional, cell-based
HUVEC [7] = experiment: Antiangiogenic activity in HUVECs assessed as reduction in tube length at 2.5 nM incubated for 6 to 8 hrs by inverted microscopic analysis; assay type: functional, cell-based; settings: Homo sapiens, time 6-8 hrs
A549 [8] = experiment: Inhibition of cell growth in human A549 cells incubated for 72 hrs by SRB method; assay type: functional, cell-based
[9] = target: T3, Protein cereblon-alpha tubulin (Homo sapiens) (UniProt P0DPH7+P68366+Q71U36+P68363+Q9BQE3+Q6PEY2+A6NHL2+Q9NY65+Q96SW2); experiment: Protac activity at CRBN/alpha-tubulin in human A549/Taxol cells assessed as reduction in alpha-tubulin level at 0.25 uM pretreated with MG-132 followed by compound addition and measured after 48 hrs by immunoblotting analysis; assay type: cell-based
[10] = Toxicity in nude mouse xenografted with human A549 cells assessed as body weight loss at 15 mg/kg, ip administered once every 2 days for 23 days and measured every 3 days; assay type: organism-based; settings: in vivo, 552 h, time 23 day
A549/TR [11] = experiment: Induction of cell cycle arrest in human A549/Taxol cells assessed as accumulation of cells at S phase at 0.05 uM incubated for 24 hrs by PI staining based flow cytometry analysis (reference value: 2.85%); assay type: functional
[12] = target: T1, Protein cereblon/Tubulin beta (Homo sapiens); experiment: Protac activity at CRBN/beta-tubulin in human MGC-803 cells assessed as reduction in beta-tubulin level at 10 to 1000 nM incubated for 48 hrs by immunoblotting analysis; assay type: cell-based; settings: dose 10-1000 nM
MCF7 = experiment: Antiproliferative activity against human MCF7 cells incubated for 72 hrs; assay type: functional, cell-based; settings: MCF7, 72 h
[13] = target: T2, Protein cereblon/Tubulin beta-3 chain; experiment: Protac activity at CRBN/beta3-tubulin in human A549/Taxol cells assessed as reduction in beta3-tubulin level at 0.25 uM pretreated with MG-132 followed by compound addition and measured after 48 hrs by immunoblotting analysis; assay type: cell-based
Target sequence in this assay (Q13509 whole entry, looked up): as the sequence (Q13509 whole entry, looked up) above
Target sequence in this assay (Q96SW2 whole entry, looked up): as the sequence (Q96SW2 whole entry, looked up) above

HeLa = experiment: Antiproliferative activity against human HeLa cells incubated for 72 hrs; assay type: functional, cell-based
[14] = target: T1, Protein cereblon/Tubulin beta (Homo sapiens); experiment: Protac activity at CRBN/beta-tubulin in human HepG2 cells assessed as reduction in beta-tubulin level at 10 to 1000 nM incubated for 48 hrs by immunoblotting analysis; assay type: cell-based; settings: dose 10-1000 nM
[15] = target: T3, Protein cereblon-alpha tubulin (Homo sapiens); experiment: Protac activity at CRBN/alpha-tubulin in human HepG2 cells assessed as reduction in alpha-tubulin level at 10 to 1000 nM incubated for 48 hrs by immunoblotting analysis; assay type: cell-based; settings: dose 10-1000 nM
[16] = Toxicity in nude mouse xenografted with human A549/Taxol cells assessed as body weight loss at 15 mg/kg, ip administered once every 2 days for 23 days and measured every 3 days; assay type: organism-based, A549/TR; settings: in vivo, 552 h, time 23 day
[17] = target: T2, Protein cereblon/Tubulin beta-3 chain; experiment: Protac activity at CRBN/beta3-tubulin in human A549 cells assessed as reduction in beta3-tubulin level at 0.25 uM pretreated with MG-132 followed by compound addition and measured after 24 hrs by immunoblotting analysis; assay type: cell-based
Target sequence in this assay (Q13509 whole entry, looked up): as the sequence (Q13509 whole entry, looked up) above
Target sequence in this assay (Q96SW2 whole entry, looked up): as the sequence (Q96SW2 whole entry, looked up) above

[18] = Resistance index, ratio of IC50 for human A549/Taxol cells to IC50 for human A549 cells; assay type: functional
[19] = target: T3, Protein cereblon-alpha tubulin (Homo sapiens); experiment: Protac activity at CRBN/alpha-tubulin in human A549 cells assessed as reduction in alpha-tubulin level at 0.01 to 1 uM incubated for 48 hrs by immunoblotting analysis; assay type: cell-based; settings: dose 0.01-1 µM
[20] = target: T2, Protein cereblon/Tubulin beta-3 chain; experiment: Protac activity at CRBN/beta3-tubulin in human HeLa cells assessed as reduction in beta3-tubulin level at 10 to 1000 nM incubated for 48 hrs by immunoblotting analysis; assay type: cell-based; settings: dose 10-1000 nM
Target sequence in this assay (Q13509 whole entry, looked up): as the sequence (Q13509 whole entry, looked up) above
Target sequence in this assay (Q96SW2 whole entry, looked up): as the sequence (Q96SW2 whole entry, looked up) above

HepG2 [21] = experiment: Inhibition of cell proliferation in human HepG2 cells; assay type: functional, cell-based
[22] = target: T1, Protein cereblon/Tubulin beta (Homo sapiens); experiment: Protac activity at CRBN/beta-tubulin in human A549/Taxol cells assessed as reduction in beta-tubulin level at 0.25 uM pretreated with MG-132 followed by compound addition and measured after 48 hrs by immunoblotting analysis; assay type: cell-based
[23] = target: T2, Protein cereblon/Tubulin beta-3 chain; experiment: Protac activity at CRBN/beta3-tubulin in human A549 cells assessed as reduction in beta3-tubulin level incubated for 48 hrs by immunoblotting analysis; assay type: cell-based
HUVEC [24] = experiment: Antiangiogenic activity in HUVECs assessed as reduction in cord formation at 2.5 nM incubated for 6 to 8 hrs by inverted microscopic analysis; assay type: functional, cell-based; settings: Homo sapiens, time 6-8 hrs
A549 [25] = experiment: Induction of cell cycle arrest in human A549 cells assessed as accumulation of cells at G2/M phase at 0.05 uM incubated for 24 hrs by PI staining based flow cytometry analysis (reference value: 31.86%); assay type: functional
HEK-293T = experiment: Cytotoxicity against HEK293T cells assessed as effect on cell viability at 20 uM; assay type: toxicity, cell-based; settings: human
A549/TR [26] = experiment: Induction of cell cycle arrest in human A549/Taxol cells assessed as accumulation of cells at S phase at 0.002 uM incubated for 24 hrs by PI staining based flow cytometry analysis (reference value: 2.85%); assay type: functional
[27] = target: T3, Protein cereblon-alpha tubulin (Homo sapiens); experiment: Protac activity at CRBN/alpha-tubulin in human A549 cells assessed as reduction in alpha-tubulin level at 0.25 uM pretreated with MG-132 followed by compound addition and measured after 24 hrs by immunoblotting analysis; assay type: cell-based
A549 [28] = experiment: Induction of apoptosis in human A549 cells assessed as increase in apoptotic rate at 0.01 uM incubated for 48 hrs by Annexin V-FITC/PI staining based flow cytometry analysis (reference value: 1.3%); assay type: functional
A549 [29] = experiment: Induction of cell cycle arrest in human A549 cells assessed as accumulation of cells at S phase at 0.05 uM incubated for 24 hrs by PI staining based flow cytometry analysis (reference value: 1.39%); assay type: functional
A549 [30] = experiment: Induction of apoptosis in human A549 cells assessed as increase in apoptotic rate at 0.05 uM incubated for 48 hrs by Annexin V-FITC/PI staining based flow cytometry analysis (reference value: 1.3%); assay type: functional
[31] = target: T3, Protein cereblon-alpha tubulin (Homo sapiens); experiment: (§1) Protac activity at CRBN/alpha-tubulin in human A549/Taxol cells assessed as reduction in alpha-tubulin level incubated for 48 hrs by immunoblotting analysis; assay type: cell-based
[32] = target: Protein cereblon-alpha tubulin; experiment: as §1; assay type: cell-based

COc1ccc(/C=C\c2cc(OC)c(OC)c(OC)c2)cc1OC(=O)CCCNc1cccc2c1C(=O)N(C1CCC(=O)NC1=O)C2=O (configuration not stated)
Activity [1]: Tde | IC50 (A549 [2]): 10 nM | Activity (A549/TR [3]): 26.79% | Activity (A549/TR [4]): 63.83% | Activity [5]: Active | inhibition (HepG2 [6]): Dose-Dependent Effect | Activity (HUVEC [7]): Active | inhibition (A549 [8]): Dose-Dependent Effect | IC50 (A549 [8]; A549, 72 h): 10 nM | Activity [9]: inactive | Activity [10]: Non-Toxic | Activity (A549/TR [11]): 3.85% | Activity [12]: Active | IC50 (MCF7): 12 nM | Activity [13]: inactive | IC50 (HeLa): 21 nM | Activity [14]: Active | Activity [15]: Active | Activity [16]: Non-Toxic | Activity [17]: inactive | Ratio IC50 [18]: 0.5 | Activity [19]: Active | Activity [20]: Active | inhibition (HepG2 [21]): Active | Activity [22]: inactive | Activity [23]: Dose-Dependent Effect | DC50 [23]: 251 nM | Activity (HUVEC [24]): Active | Activity (A549 [25]): 73.41% | Activity (HEK-293T): Non-Toxic | Activity (A549/TR [26]): 7.68% | Activity [27]: inactive | Activity (A549 [28]): 23.1% | Activity (A549 [29]): 16.44% | Activity (A549 [30]): 48.2% | Activity [31]: Dose-Dependent Effect | DC50 [32]: 32 nM
